Reference: ChEMBL document CHEMBL1697781, “Assessment of the health effects of chemicals in humans: II. Construction of an adverse effects database for QSAR modeling” (Curr Drug Discov Technol, 2004)

Key:
Conditions in all cases: human; call rule not given here
[1] = system: Hepatotoxicity; test: FDA HLAED, liver enzyme composite activity
[2] = system: Hepatotoxicity; test: FDA HLAED, alkaline phosphatase increase
[3] = system: Hepatotoxicity; test: FDA HLAED, serum glutamic oxaloacetic transaminase (SGOT) increase
[4] = system: Hepatotoxicity; test: FDA HLAED, serum glutamic pyruvic transaminase (SGPT) increase
[5] = system: Hepatotoxicity; test: FDA HLAED, lactate dehydrogenase (LDH) increase
[6] = system: Hepatotoxicity; test: FDA HLAED, gamma-glutamyl transferase (GGT) increase

Row | SMILES | Composite Activity - Active [1] | Composite Activity - Marginal [1] | Composite Activity - Score [1] | Alkaline Phosphatase Increase - Activity Score [2] | Alkaline Phosphatase Increase - Index Value [2] | Alkaline Phosphatase Increase - Number of Reports [2] | SGOT Increase - Activity Score [3] | SGOT Increase - Index Value [3] | SGOT Increase - Number of Reports [3] | SGPT Increase - Activity Score [4] | SGPT Increase - Index Value [4] | SGPT Increase - Number of Reports [4] | LDH Increase - Activity Score [5] | LDH Increase - Index Value [5] | LDH Increase - Number of Reports [5] | GGT Increase - Activity Score [6] | GGT Increase - Index Value [6] | GGT Increase - Number of Reports [6]
1 | C=CC1=C(C(=O)O)N2C(=O)[C@@H](NC(=O)/C(=N\OCC(=O)O)c3csc(N)n3)[C@H]2SC1 [CEFIXIME] | 0 | 0 | Inactive | Inactive | 13.7 | < 4 | Inactive | 0.4 | >= 4 | Inactive | 0.4 | >= 4 | Inactive | 0.1 | < 4 | Inactive | 0 | < 4
2 | CO[C@@]1(NC(=O)CSCC#N)C(=O)N2C(C(=O)O)=C(CSc3nnnn3C)CS[C@@H]21 [CEFMETAZOLE] | 0 | 0 | Inactive | Inactive | 0.1 | < 4 | Inactive | 0 | < 4 | Inactive | 0 | < 4 | Inactive | 25.5 | < 4 | Inactive | 0 | < 4
3 | O=C(O)C1=C(CSc2nnnn2CS(=O)(=O)O)CS[C@@H]2[C@H](NC(=O)[C@H](O)c3ccccc3)C(=O)N12 [CEFONICID] | 0 | 0 | Inactive | Inactive | 12.7 | < 4 | Inactive | 0 | < 4 | Inactive | 0 | < 4 | Inactive | 0 | < 4 | Inactive | 0 | < 4
4 | CCN1CCN(C(=O)N[C@@H](C(=O)N[C@@H]2C(=O)N3C(C(=O)O)=C(CSc4nnnn4C)CS[C@H]23)c2ccc(O)cc2)C(=O)C1=O [CEFOPERAZONE] | 0 | 0 | Inactive | Inactive | 0 | < 4 | Inactive | 0.4 | >= 4 | Inactive | 0.2 | < 4 | Inactive | 0.1 | < 4 | Inactive | 0 | < 4
5 | CO/N=C(\C(=O)N[C@@H]1C(=O)N2C(C(=O)O)=C(COC(C)=O)CS[C@H]12)c1csc(N)n1 [CEFOTAXIME] | 1 | 0 | Inactive | Inactive | 0.3 | < 4 | Active | 4.7 | >= 4 | Inactive | 2 | < 4 | Inactive | 0 | < 4 | Inactive | 0 | < 4
6 | CO[C@@]1(NC(=O)C2SC(=C(C(N)=O)C(=O)O)S2)C(=O)N2C(C(=O)O)=C(CSc3nnnn3C)CS[C@@H]21 (stereo partly drawn) [CEFOTETAN] | 0 | 0 | Inactive | Inactive | 0.7 | < 4 | Inactive | 0 | < 4 | Inactive | 0 | < 4 | Inactive | 0 | < 4 | Inactive | 0 | < 4
